Experimental findings from PubChem BioAssay AID1996 are described below.

≈ marks a conversion by molar mass, not a printed value. Some results are limits rather than exact numbers.

For this data set the following is noted: buffer; pH 7.4; 200.0 µM.
In turn, `CC(C)C(=O)Nc1cc(C(F)(F)F)ccc1-n1ccnc1` came in with a kinetic solubility of 38.8 µg/mL (≈ 131 µM).
With `Cc1cc(NCc2ccccc2)c2ccccc2n1.Cl` the figure was greater than 42.7 µg/mL; with `COc1ccc(/C=C2\N=C(SC)N(c3ccccc3OC)C2=O)cc1`, 1.4 µg/mL (≈ 3.95 µM); with `CCOc1ccc(C2C([N+](=O)[O-])=C(C)N(C)C(=O)N2C)cc1OC` (configuration not stated), greater than 50.3 µg/mL.
With `CN(Cc1ccccc1)C(=O)CN1C(=O)NC2(CCCC2)C1=O` the figure was greater than 47.3 µg/mL; with `Cc1cc(C)cc(C(=O)N2CCN(Cc3ccc4c(c3)OCO4)CC2)c1`, greater than 52.9 µg/mL.
In turn, `CN(C1CCCCC1)S(=O)(=O)c1ccc(SCC(=O)C(C)(C)C)nc1` came in with a kinetic solubility of 3.2 µg/mL (≈ 8.32 µM).
Then `COc1cccc(/C=C/c2ccc3cccc(O)c3n2)c1`, with 0.7 µg/mL (≈ 2.52 µM); and `COc1ccccc1NC(=O)NCCN1CCNC1=O`, with 39.7 µg/mL (≈ 143 µM).
Then `Cc1nnc(Nc2ccc(C(=O)O)cc2)[nH]c1=O`, with greater than 36.9 µg/mL; and `O=c1[nH]cc(N2CCCCCC2)c(=O)[nH]1`, with greater than 31.4 µg/mL; and `CC(C)CCNC(=O)C(=O)Nc1cc2c3c(c1)CC(=O)N3CCC2`, with 28.5 µg/mL (≈ 86.5 µM).
With `CN(C(=O)COC(=O)c1ccc2ccccc2n1)c1ccccc1` the figure was greater than 48.1 µg/mL; with `N#Cc1ccccc1CSc1ncccc1C(=O)O`, greater than 40.5 µg/mL.
Compound `CC(Sc1nncs1)C(=O)NC1CCCCC1C` (configuration not stated) showed a kinetic solubility greater than 42.8 µg/mL.
In turn, `CCC(=O)c1cn(CC(=O)Nc2ccc(OC)cc2)c2ccccc12` returned a solubility (kinetic) of less than 0.4 µg/mL.
Then `O=C(Oc1ccc(C(=S)N2CCOCC2)cc1)c1cccc(Cl)c1`, with less than 0.8 µg/mL; and `CC(OC(=O)CCOc1ccccc1)C(=O)NC1CC1` (configuration not stated), with greater than 41.6 µg/mL; and `O=C(NCc1ccccn1)C(=O)Nc1cc2c3c(c1)CC(=O)N3CCC2`, with greater than 52.6 µg/mL.
Then `Cc1ccccc1NC(=S)NC1CCCC1`, with 34.9 µg/mL (≈ 149 µM); and `CCCN1CCOC(CC(=O)Nc2ccc([N+](=O)[O-])cc2)C1=O` (configuration not stated), with 38 µg/mL (≈ 118 µM); and `CCc1ccc(CN2CCSCC2)cc1`, with 8.5 µg/mL (≈ 38.4 µM).
With `CC(C)Oc1ccc(C(=O)CCN2CCOCC2)cc1` the figure was 32.8 µg/mL (≈ 118 µM); with `COCCNC(=O)c1ccccc1NC(=O)Nc1ccccc1`, greater than 47 µg/mL.
In turn, `Cc1cc(C)c(S(=O)(=O)NCCc2ccncc2)c(C)c1` registered a kinetic solubility of 19.7 µg/mL (≈ 64.7 µM).
With `CCOc1ccc(NC(=O)Nc2ccccc2SC)cc1` the figure was 1.4 µg/mL (≈ 4.63 µM); with `O=C(CSc1nnc(-c2ccncc2)o1)Nc1nncs1`, greater than 48.1 µg/mL; with `COc1cccc(S(=O)(=O)NCc2ccc(C(=O)N3CCN(C)CC3)cc2)c1`, greater than 60.5 µg/mL.
With `CC(C)(C)NC(=O)N1CCn2cccc2C1c1ccccc1F` (configuration not stated) the figure was 40 µg/mL (≈ 127 µM); with `CCCOc1ccc(CN(C)c2ncnc(N)n2)cc1`, 13.5 µg/mL (≈ 49.4 µM); with `CCn1c(O)c(C=Nc2ccccc2)sc1=O`, 0.5 µg/mL (≈ 2.01 µM).
With `CNS(=O)(=O)c1cccc(C(=O)NCC(C)(C)N2CCCCC2)c1` the figure was 48.8 µg/mL (≈ 138 µM); with `O=C(COc1ccc(Cl)cc1)OCC(=O)N1CCOCC1`, greater than 47.1 µg/mL; with `O=C(NCCCl)Nc1ccccc1NS(=O)(=O)c1cccs1`, greater than 54 µg/mL.
Take `Cc1noc(C)c1C(=O)Nc1ccc(C#N)cc1`: the kinetic solubility was greater than 36.2 µg/mL.
With `Cc1ccc(C2SCC(=O)N2c2ccccc2)cc1` (configuration not stated) the figure was greater than 40.4 µg/mL.
The compound `COc1cccc(NC(=S)N2CCC(Cc3ccccc3)CC2)c1` registered a solubility (kinetic) of 5.5 µg/mL (≈ 16.2 µM).
`CCOC(=O)NN1C(=O)c2ccccc2NC1c1ccccn1` (configuration not stated) gave a kinetic solubility greater than 46.8 µg/mL.
With `O=C(NCCC1=CCCCC1)c1cc(-c2ccncc2)nc2ccccc12` the figure was 1.2 µg/mL (≈ 3.36 µM).
Then `Cc1ccc(-n2c(-c3ccccc3)c[nH]c2=S)cc1`, with 0.6 µg/mL (≈ 2.25 µM).
With `O=C(Cn1ccc([N+](=O)[O-])n1)NCCc1c[nH]c2ccccc12` the figure was greater than 47 µg/mL; with `O=C(COc1ccccc1)Nc1c(Cl)ccc2nsnc12`, 4.7 µg/mL (≈ 14.7 µM).
`CC(C)C1N(C(N)=S)N=CC1(C)C` (configuration not stated) registered a kinetic solubility greater than 29.9 µg/mL.
For `CC1(C)CCC(=O)N(c2ccc(OC(F)(F)F)cc2)C1=O`, the solubility (kinetic) was greater than 45.2 µg/mL.
With `CC(O)c1cccc(NC(=O)Cc2cccc3ccccc23)c1` (configuration not stated) the figure was 44.7 µg/mL (≈ 146 µM); with `COc1ccc(C2CC(=O)N(c3ccccc3)C3=C2C(=O)CCC3)cc1` (configuration not stated), 48.9 µg/mL (≈ 141 µM); with `Cc1nc(-c2ccc(NC(=O)c3ccc(Br)o3)cc2)cs1`, less than 0.4 µg/mL.
With `CCC(C)[C@H](NC(=O)Nc1ccc2c(c1)OCCO2)C(=O)OC` (some centres not stated) the figure was greater than 48.4 µg/mL.
With `COc1cccc(CC(=O)OCC(=O)NC2CCCCCC2)c1` the figure was greater than 47.9 µg/mL.
With `CC12CCC(C(=O)Nc3ccncc3)(CC1O)C2(C)C` (configuration not stated), the kinetic solubility was greater than 41.2 µg/mL.
Compound `Cc1cccc(N2CCN(C(=O)c3ccnn3C)CC2)c1C` gave a kinetic solubility greater than 44.8 µg/mL.
`Cc1ccc(N2C(=O)CC(C)(C)CC2=O)cc1Cl` had a kinetic solubility of 12.5 µg/mL (≈ 47 µM).
